The results in this text go back to patent US20060160871A1, “Stable non-crystalline formulation comprising losartan” (Nektar Therapeutics, priority 2004, published 2006).

Data set [1] can be described thus: Differential Scanning Calorimetry (DSC): amorphous form and glass transition temperature. The data set is classed as physicochemical. The following applies: specific heat as a function of temperature. The method, then:
DSC was used to determine glass transition temperatures. This technique provides a measure of the glass transition characteristics of amorphous materials. In addition, the absence of a melting point is indicative of the lack of three dimensional order characteristic of crystalline materials. A Perkin-Elmer™ DSC 7 (Perkin-Elmer Ltd, UK) was used. 1-5 mg samples were examined in sealed, crimped aluminium pans, under an atmosphere of nitrogen. Samples were measured using a TA DSC-2920 instrument (TA Instruments, New Castle, Del.). About 5-10 mg sample was packed into an aluminum DSC pan and gently tapped to get the powder to form a uniform layer on the bottom of the pan (Catalog numbers 900 793.901 for pans and 900 794.901 for lids). The DSC pan was hermetically sealed using a sample encapsulation press (part # 900680.902). Helium is used as the DSC purge gas at 30 ml/min. A Refrigerated Control System (RCS) provides the heat sink for the DSC, with helium as the circuit gas run at ˜110 ml/min. In modulated DSC experiments, the sample was first cooled to about 0° C., held isothermally for 10 minutes, and then heated at 2° C./minute to ˜200° C. The heating rate was modulated by superimposing a sinusoidal heating profile at ±0.318° C./min.

The nature of data set [2]: Powder flowability after exposure to ambient conditions. Type of data set: physicochemical. The text has this: The particles made by Example 2 were further determined to be advantageous over pure non-crystalline forms. […] Accordingly, the non-crystalline losartan and PVP-VA containing powder formulation has an improved flowability for downstream process such as tablet formation.

As to `CCCCc1nc(Cl)c(CO)n1Cc1ccc(-c2ccccc2-c2nnn[nH]2)cc1.[K]` [pure non-crystalline losartan, 2-butyl-4-chloro-1-[p-(o-1H-tetrazol-5-ylphenyl)benzyl]imidazole-5-methanol monopotassium salt], in data set [1], the Tg midpoint result is “about 51 °C” and the Tg onset entry is “about 46 °C”. For the same compound, the powder flowability result in data set [2] is “sticks and agglomerates”.
